Values quoted from earlier work, collected in US9730930B2, “Treatment for vitiligo” (Rigel Pharmaceuticals, Inc., priority 2012, dated 2017).

Test system: other cytokine (IL-1β and TNFα) signaling

C#CCOc1ccc(Nc2nc(Nc3ccc(C)c(S(N)(=O)=O)c3)ncc2F)cc1 [Compound I, N2-(3-aminosulfonyl-4-methylphenyl)-5-fluoro-N4-[4-(prop-2-ynyloxy)phenyl]-2,4-pyrimidinediamine]
activity on other cytokine (IL-1β and TNFα) signaling: little or no activity
